Assay results: US7700782B2, “Compounds 569” (AstraZeneca AB, priority 2007, dated 2010)
Counter-ions that a name gives are not always drawn. Blank lines part the entries; values can stand above or below the molecule they belong to.

Biological target: T1, Adrenergic β2 (Homo sapiens, UniProt P07550)
T1 construct: Adherent H292 cells were removed from tissue culture flasks; endogenous in cells; host or cells: H292 cells
Test: Adrenergic β2 mediated cAMP production in H292 cells (AlphaScreen cAMP detection)
Assay type: cell-based
Settings: Intrinsic Activity, fraction relative to the maximum activity determined for formoterol
Procedure: Adrenergic β2 Mediated cAMP Production
H292 cells were grown in 225 cm2 flasks incubator at 37° C., 5% CO2 in RPMI medium containing, 10% (v/v) FBS (foetal bovine serum) and 2 mM L-glutamine.
Adherent H292 cells were removed from tissue culture flasks by treatment with Accutase™ cell detachment solution for 15 minutes. Flasks were incubated for 15 minutes in a humidified incubator at 37° C., 5% CO2. Detached cells were re-suspended in RPMI media (containing 10% (v/v) FBS and 2 mM L-glutamine) at 0.05×10^6 cells per mL. 5000 cells in 100 μL were added to each well of a tissue-culture-treated 96-well plate and the cells incubated overnight in a humidified incubator at 37° C., 5% CO2. The culture media was removed and cells were washed twice with 100 μL assay buffer and replaced with 50 μL assay buffer (HBSS solution containing 10 mM HEPES pH 7.4 and 5 mM glucose). Cells were rested at room temperature for 20 minutes after which time 25 μL of rolipram (1.2 mM made up in assay buffer containing 2.4% (v/v) dimethylsulphoxide) was added. Cells were incubated with rolipram for 10 minutes after which time test compounds were added and the cells were incubated for 60 minutes at room temperature. The final rolipram concentration in the assay was 300 μM and final vehicle concentration was 1.6% (v/v) dimethylsulphoxide. The reaction was stopped by removing supernatants, washing once with 100 μL assay buffer and replacing with 50 μL lysis buffer. The cell monolayer was frozen at −80° C. for 30 minutes (or overnight).
The concentration of cAMP (cyclic adenosine monophosphate) in the cell lysate was determined using AlphaScreen™ methodology. The frozen cell plate was thawed for 20 minutes on a plate shaker then 10 μL of the cell lysate was transferred to a 96-well white plate. 40 μL of mixed AlphaScreen™ detection beads pre-incubated with biotinylated cAMP, was added to each well and the plate incubated at room temperature for 10 hours in the dark. The AlphaScreen™ signal was measured using an EnVision spectrophotometer (Perkin-Elmer Inc.) with the recommended manufacturer's settings. cAMP concentrations were determined by reference to a calibration curve determined in the same experiment using standard cAMP concentrations. Concentration response curves for agonists were constructed and data was fitted to a four parameter logistic equation to determine both the pEC50 and Intrinsic Activity. Intrinsic Activity was expressed as a fraction relative to the maximum activity determined for formoterol in each experiment.

T1 sequence (P07550 whole entry): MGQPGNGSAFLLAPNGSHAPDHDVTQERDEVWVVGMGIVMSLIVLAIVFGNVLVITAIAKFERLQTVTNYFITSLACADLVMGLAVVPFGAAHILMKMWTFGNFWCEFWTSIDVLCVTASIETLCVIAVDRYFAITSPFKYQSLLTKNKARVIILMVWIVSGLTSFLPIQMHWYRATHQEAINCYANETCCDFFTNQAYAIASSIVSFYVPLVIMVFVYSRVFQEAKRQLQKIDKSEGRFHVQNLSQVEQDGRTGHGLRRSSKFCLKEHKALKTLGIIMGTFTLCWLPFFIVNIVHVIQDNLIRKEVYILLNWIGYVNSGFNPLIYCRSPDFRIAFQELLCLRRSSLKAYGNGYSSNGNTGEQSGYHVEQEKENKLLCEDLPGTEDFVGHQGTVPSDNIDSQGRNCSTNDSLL

Structure (SMILES): O=C(CCNCCc1cccc(Cl)c1)N(CCNCCc1ccc(O)c2[nH]c(=O)sc12)C1CCCCC1 [Example 12, N^3-[2-(3-Chlorophenyl)ethyl]-N-cyclohexyl-N-(2-{[2-(4-hydroxy-2-oxo-2,3-dihydro-1,3-benzothiazol-7-yl)ethyl]amino}ethyl)-β-alaninamide bis-trifluoroacetic acid salt]
β2 Int Act: 0.87

Structure (SMILES): O=C(CCNCCc1ccc(Cl)cc1)N(CCNCCc1ccc(O)c2[nH]c(=O)sc12)C1CCCCC1 [Example 13, N^3-[2-(4-Chlorophenyl)ethyl]-N-cyclohexyl-N-(2-{[2-(4-hydroxy-2-oxo-2,3-dihydro-1,3-benzothiazol-7-yl)ethyl]amino}ethyl)-β-alaninamide bis-trifluoroacetic acid salt]
β2 Int Act: 0.71

Structure (SMILES): Cc1cccc(CCNCCC(=O)N(CCNCCc2ccc(O)c3[nH]c(=O)sc23)C2CCCCC2)c1 [Example 14, N-Cyclohexyl-N-(2-{[2-(4-hydroxy-2-oxo-2,3-dihydro-1,3-benzothiazol-7-yl)ethyl]amino}ethyl)-N^3-[2-(3-methylphenyl)ethyl]-β-alaninamide bis-trifluoroacetic acid salt]
β2 Int Act: 0.84

Structure (SMILES): O=C(CCNCCc1ccc(F)cc1)N(CCNCCc1ccc(O)c2[nH]c(=O)sc12)C1CCCCC1 [Example 16, N-Cyclohexyl-N^3-[2-(4-fluorophenyl)ethyl]-N-(2-{[2-(4-hydroxy-2-oxo-2,3-dihydro-1,3-benzothiazol-7-yl)ethyl]amino}ethyl)-β-alaninamide bis-trifluoroacetic acid salt]
β2 Int Act: 0.91

Structure (SMILES): O=C(CCNCCc1ccccc1Cl)N(CCNCCc1ccc(O)c2[nH]c(=O)sc12)C1CCCCC1 [Example 17, N^3-[2-(2-Chlorophenyl)ethyl]-N-cyclohexyl-N-(2-{[2-(4-hydroxy-2-oxo-2,3-dihydro-1,3-benzothiazol-7-yl)ethyl]amino}ethyl)-β-alaninamide bis-trifluoroacetic salt]
β2 Int Act: 0.90

Structure (SMILES): O=C(CCNCCc1cccc(Cl)c1)N(CCNCCc1ccc(O)c2[nH]c(=O)sc12)C1CCOCC1 [Example 22, N^3-[2-(3-Chlorophenyl)ethyl]-N-(2-{[2-(4-hydroxy-2-oxo-2,3-dihydro-1,3-benzothiazol-7-yl)ethyl]amino}ethyl)-N-(tetrahydro-2H-pyran-4-yl)-β-alaninamide bis-trifluoroacetic acid salt]
β2 Int Act: 0.96

Structure (SMILES): O=C(CCNCCc1ccccc1)N(CCNCCc1ccc(O)c2[nH]c(=O)sc12)C1CCCCCC1 [Example 23, N-Cycloheptyl-N-(2-{[2-(4-hydroxy-2-oxo-2,3-dihydro-1,3-benzothiazol-7-yl)ethyl]amino}ethyl)-N^3-(2-phenylethyl)-β-alaninamide bis-trifluoroacetic acid salt]
β2 Int Act: 0.85

Structure (SMILES): O=C(CCNCCc1ccc(Cl)c(Cl)c1)N(CCNCCc1ccc(O)c2[nH]c(=O)sc12)C1CCOCC1 [Example 24, N^3-[2-(3,4-Dichlorophenyl)ethyl]-N-(2-{[2-(4-hydroxy-2-oxo-2,3-dihydro-1,3-benzothiazol-7-yl)ethyl]amino}ethyl)-N-(tetrahydro-2H-pyran-4-yl)-β-alaninamide bis-trifluoroacetic acid salt]
β2 Int Act: 0.77

Structure (SMILES): O=C(CCNCCc1ccc(Cl)cc1)N(CCNCCc1ccc(O)c2[nH]c(=O)sc12)C1CCOCC1 [Example 26, N^3-[2-(4-Chlorophenyl)ethyl]-N-(2-{[2-(4-hydroxy-2-oxo-2,3-dihydro-1,3-benzothiazol-7-yl)ethyl]amino}ethyl)-N-(tetrahydro-2H-pyran-4-yl)-β-alaninamide bis-trifluoroacetic acid salt]
β2 Int Act: 0.83

Structure (SMILES): Cc1ccccc1CCNCCC(=O)N(CCNCCc1ccc(O)c2[nH]c(=O)sc12)C1CCOCC1 [Example 27, N-(2-{[2-(4-Hydroxy-2-oxo-2,3-dihydro-1,3-benzothiazol-7-yl)ethyl]amino}ethyl)-N^3-[2-(2-methylphenyl)ethyl]-N-(tetrahydro-2H-pyran-4-yl)-β-alaninamide bis-trifluoroacetic acid salt]
β2 Int Act: 0.95

Structure (SMILES): O=C(CCNCCc1ccc(Cl)cc1)N(CCNCCc1ccc(O)c2[nH]c(=O)sc12)C1CCCC1 [Example 28, N^3-[2-(4-Chlorophenyl)ethyl]-N-cyclopentyl-N-(2-{[2-(4-hydroxy-2-oxo-2,3-dihydro-1,3-benzothiazol-7-yl)ethyl]amino}ethyl)-β-alaninamide bis-trifluoroacetic acid salt]
β2 Int Act: 0.87

Structure (SMILES): O=C(CCNCCc1cccc(Cl)c1)N(CCNCCc1ccc(O)c2[nH]c(=O)sc12)C1CCCC1 [Example 30, N^3-[2-(3-Chlorophenyl)ethyl]-N-cyclopentyl-N-(2-{[2-(4-hydroxy-2-oxo-2,3-dihydro-1,3-benzothiazol-7-yl)ethyl]amino}ethyl)-β-alaninamide bis-trifluoroacetic acid salt]
β2 Int Act: 0.96

Structure (SMILES): O=C(CCNCCc1ccccn1)N(CCNCCc1ccc(O)c2[nH]c(=O)sc12)C1CCCCC1 [Example 33, N-Cyclohexyl-N-(2-{[2-(4-hydroxy-2-oxo-2,3-dihydro-1,3-benzothiazol-7-yl)ethyl]amino}ethyl)-N^3-(2-pyridin-2-ylethyl)-β-alaninamide bis-trifluoroacetic acid salt]
β2 Int Act: 0.78

Structure (SMILES): O=C(CCNCCc1ccc(O)cc1)N(CCNCCc1ccc(O)c2[nH]c(=O)sc12)C1CCCCC1 [Example 34, N-Cyclohexyl-N-(2-{[2-(4-hydroxy-2-oxo-2,3-dihydro-1,3-benzothiazol-7-yl)ethyl]amino}ethyl)-N^3-[2-(4-hydroxyphenyl)ethyl]-β-alaninamide bis-trifluoroacetic acid salt]
β2 Int Act: 0.75

Next, values leading:

β2 Int Act: 0.89
Structure (SMILES): C[C@H](CNCCC(=O)N(CCNCCc1ccc(O)c2[nH]c(=O)sc12)C1CCCCC1)c1ccccc1 [Example 18, N-Cyclohexyl-N-(2-{[2-(4-hydroxy-2-oxo-2,3-dihydro-1,3-benzothiazol-7-yl)ethyl]amino}ethyl)-N^3-[(2S)-2-phenylpropyl]-β-alaninamide bis-trifluoroacetic acid salt]

β2 Int Act: 0.70
Structure (SMILES): CC(C)(Cc1ccccc1)NCCC(=O)N(CCNCCc1ccc(O)c2[nH]c(=O)sc12)C1CCCCC1 [Example 19, N-Cyclohexyl-N^3-(1,1-dimethyl-2-phenylethyl)-N-(2-{[2-(4-hydroxy-2-oxo-2,3-dihydro-1,3-benzothiazol-7-yl)ethyl]amino}ethyl)-β-alaninamide bis-trifluoroacetic acid salt]

β2 Int Act: 0.97
Structure (SMILES): C[C@@H](CNCCC(=O)N(CCNCCc1ccc(O)c2[nH]c(=O)sc12)C1CCCCC1)c1ccccc1 [Example 20, N-Cyclohexyl-N-(2-{[2-(4-hydroxy-2-oxo-2,3-dihydro-1,3-benzothiazol-7-yl)ethyl]amino}ethyl)-N^3-[(2R)-2-phenylpropyl]-β-alaninamide bis-trifluoroacetic acid salt]

β2 Int Act: 0.85
Structure (SMILES): CC(C)(CNCCC(=O)N(CCNCCc1ccc(O)c2[nH]c(=O)sc12)C1CCCCC1)c1ccccc1 [Example 21, N-Cyclohexyl-N-(2-{[2-(4-hydroxy-2-oxo-2,3-dihydro-1,3-benzothiazol-7-yl)ethyl]amino}ethyl)-N^3-(2-methyl-2-phenylpropyl)-β-alaninamide bis-trifluoroacetic acid salt]

β2 Int Act: 0.97
Structure (SMILES): O=C(CCNCCc1ccccc1Cl)N(CCNCCc1ccc(O)c2[nH]c(=O)sc12)C1CCCC1 [Example 29, N^3-[2-(2-Chlorophenyl)ethyl]-N-cyclopentyl-N-(2-{[2-(4-hydroxy-2-oxo-2,3-dihydro-1,3-benzothiazol-7-yl)ethyl]amino}ethyl)-β-alaninamide bis-trifluoroacetic acid salt]

β2 Int Act: 0.92
Structure (SMILES): C[C@H](CNCCC(=O)N(CCNCCc1ccc(O)c2[nH]c(=O)sc12)C1CCCC1)c1ccccc1 [Example 31, N-cyclopentyl-N-(2-{[2-(4-hydroxy-2-oxo-2,3-dihydro-1,3-benzothiazol-7-yl)ethyl]amino}ethyl)-N^3-[(2S)-2-phenylpropyl]-β-alaninamide bis-trifluoroacetic acid salt]

β2 Int Act: 0.67
Structure (SMILES): CC(C)(CNCCC(=O)N(CCNCCc1ccc(O)c2[nH]c(=O)sc12)C1CCCC1)c1ccccc1 [Example 32, N-cyclopentyl-N-(2-{[2-(4-hydroxy-2-oxo-2,3-dihydro-1,3-benzothiazol-7-yl)ethyl]amino}ethyl)-N^3-(2-methyl-2-phenylpropyl)-β-alaninamide bis-trifluoroacetic acid salt]
